Laboratory results from patent publication US20250339391A1, “METHODS FOR EFFECTIVE MANAGEMENT OF PAIN” (South Rampart Pharma, Inc., priority 2024, published 2025).
“And” between values parts separate entries of the source, which are not always exact repeats. Equal values may be shown once. “Also recorded” adds a separate entry of the source.

Columns and labels:
male Sprague-Dawley rats = experiment: Neuropharmacological profile (modified Irwin/FOB) in Sprague-Dawley rats (GLP); assay type: in vivo, rat
Experimental: Any potential neuropharmacological effects of orally administered SRP-001 in rats were assessed in three groups of eight male Sprague-Dawley rats. Each was orally administered SRP-001 at a single dose of 220, 440, or 660 mg/kg. Vehicle (10% labrasol: 10% DMSO: 80% PEG400) was administered to an additional group of eight rats. The dose volume was 10 mL/kg. […] All observations were made at ±5 min for the observations through 1 h post-dose and ±15 min for the later observations. Body temperature was measured 1 h following dose administration.

Male rats = experiment: Rat micronucleus in vivo study
Experimental: The induction of numerical aberrations was within the 95% control limit of the historical negative control data. […] Approximately 48 h after the second dose administration, peripheral blood was collected for flow cytometric analysis of micronuclei. There was no significant increase in the incidence of micronuclei in the test article-dosed animals compared to the concurrent vehicle control. The vehicle control value was compatible with the historical range of % micronucleated reticulocytes (MnRETs). There was a statistically significant increase in MnRETs in the positive control compared to the concurrent vehicle control. […] The vehicle control was 10% Labrasol, 10% DMSO, and 80% PEG400. The positive control for the Comet assay, ethyl methanesulfonate (EMS), was orally administered at 200 mg/kg/dose for two consecutive days at a dose volume of 10 mL/kg/dose. […] Animals were euthanized 3-4 h after the last dose administration. The liver and glandular stomach were collected and processed for comet evaluation.

[1] = Phase 1 single ascending dose (SAD) and food effect pharmacokinetics; assay type: in vivo, human
Experimental: A two-part randomized, double-blind, placebo-controlled Phase 1 trial was conducted to assess the safety, tolerability, PK and PD of SRP-001 ascending doses (Quotient Sciences, Miami, FL USA). The study was conducted in accordance with the International Council for Harmonisation of Technical Requirements for Pharmaceuticals for Human Use (ICH), Guideline for GCP: Consolidated Guidance (E6), and applicable regulatory requirements(s) including clinical research guidelines established by the Basic Principles defined in the U.S. 21 CFR Parts 50, 56, and 312 and the principles enunciated in the Declaration of Helsinki (revised version Fortaleza 2013). The clinical protocol and informed consent form were reviewed and approved by an Institutional Review Board (IRB; Advarra IRB, 6100 Merriweather Drive, Suite 600, Columbia, MD 21044; Quotient Protocol No. SRP-101 and Quotient Sciences Study No. QSC205130; Quotient Sciences Miami, 3898 NW 7th Street, Miami, FL 33126.). The study comprises a SAD (Part 1) assessment that includes a food effect assessment that contributes data to inform a subsequent MAD (Part 2) dose-ranging study. Safety measurements were collected throughout the study for all subjects. Blood samples were collected to determine the PK parameters of SRP-001. ClinicalTrials.gov identifier: NCT05484414
Fasted and Fed Dosing: NHVs were dosed in the fasted state. The calorie/fat content of meals was not required to be controlled. Subjects were provided with a standardized menu. Subjects were provided with a light snack and then fasted from all food and drink (except water) for a minimum of 10 h on the day prior to dosing until approximately 4 h post-dose, at which time lunch was provided. An evening meal was provided at approximately 10 h post-dose/post-morning dose and an evening snack at approximately 14 h post-morning dose. Food effect was studied in the cohort receiving 900 mg SRP-001 in the fed state. A standard high-fat breakfast was given 30 min before dosing. On Day −1, these NHVs were provided with a light snack and fasted from all food and drink (except water) until the following morning, when they were provided with a standard high-fat breakfast. The breakfast had to be consumed over a maximum period of 25 min, with dosing occurring 30 min after the start of breakfast. Subjects were encouraged to eat their meal evenly over the 25 min period. It was acknowledged that some subjects took less time to eat, but dosing still occurred 30 min after the start of breakfast. Subjects had to consume at least 90% to be eligible for dosing. The start and stop time and percentage of the breakfast consumed were recorded in the source. Acceptable deviations for the pre-dose meal from the nominal time point were: 1) Pre-dose meal was provided within +5 min of the nominal time point, 2) Lunch was provided at approximately 4 h post-dose, 3) an evening meal at approximately 10 h post-dose, and 4) an evening snack at approximately 14 h post-dose. On subsequent days, meals were provided at appropriate times.
SRP-001 administration and PK/PD determination: Following a single administration of 300-2,000 mg SRP-001 oral suspension in the fasted state (and in cohort 4, 900 mg in the fed state), plasma concentrations of SRP-001 were observed from the first sampling timepoint of 1 h post-dose for all subjects.

CCN(CC)C(=O)c1ccccc1S(=O)(=O)NCC(=O)Nc1ccc(O)cc1 [SRP-001, N,N-diethyl-2-[[2-(4-hydroxyanilino)-2-oxo-ethyl]sulfamoyl]benzamide]
body temperature versus vehicle (male Sprague-Dawley rats; 660 mg/kg, 1 h post-dose): significantly (p≤0.05) lower; also recorded: lower body temperature
neuropharmacological or clinical signs (male Sprague-Dawley rats; 220, 440 or 660 mg/kg oral, through 24 h post-dose): No apparent neuropharmacological or clinical signs were observed
incidence of micronuclei / clastogenicity (Male rats; 500, 1,000 and 2,000 mg/kg/d oral, two days): negative (non-clastogenic)
% RETs (Male rats; treatment groups): Statistically significant decreases in % RETs
AUC(0-48), geometric mean ([1]; 300 mg fasted): 1630 ng·h/mL
AUC(0-inf), geometric mean ([1]; 300 mg fasted): 1630 ng·h/mL
T1/2, geometric mean ([1]; 300 mg fasted): 2.38 h
dose dependence of geometric mean Cmax and AUC(0-∞) ([1]; 300 mg to 2,000 mg): dose-proportional or super-proportional increase
AUC(0-24), geometric mean ([1]; 600 mg fasted): 5660 ng·h/mL
AUC(0-inf), geometric mean ([1]; 600 mg fasted): 5840 ng·h/mL
Cmax, geometric mean ([1]; 600 mg fasted): 1740 ng/mL
T1/2, geometric mean ([1]; 600 mg fasted): 5.0 h and 5.04 h
AUC(0-24), geometric mean ([1]; 900 mg fasted): 6870 ng·h/mL
AUC(0-inf), geometric mean ([1]; 900 mg fasted): 6970 ng·h/mL
Cmax, geometric mean ([1]; 900 mg fasted): 2700 ng/mL
T1/2, geometric mean ([1]; 900 mg fasted): 3.26 h
AUC(0-24), geometric mean ([1]; 900 mg fed): 6250 ng·h/mL
AUC(0-inf), geometric mean ([1]; 900 mg fed): 5910 ng·h/mL
Cmax, geometric mean ([1]; 900 mg fed): 1200 ng/mL
T1/2, geometric mean ([1]; 900 mg fed): 3.79 h
relative bioavailability based on geometric mean AUC(0-24) ([1]; 900 mg fed vs fasted): 99.2%
relative bioavailability based on geometric mean AUC(0-inf) ([1]; 900 mg fed vs fasted): 101%
relative bioavailability based on geometric mean AUC(0-last) ([1]; 900 mg fed vs fasted): 98.4%
relative bioavailability based on geometric mean Cmax ([1]; 900 mg fed vs fasted): 48.4%
AUC(0-24), geometric mean ([1]; 2000 mg fasted): 18900 ng·h/mL
AUC(0-inf), geometric mean ([1]; 2000 mg fasted): 19600 ng·h/mL
Cmax, geometric mean ([1]; 2000 mg fasted): 4590 ng/mL
T1/2, geometric mean ([1]; 2000 mg fasted): 5.96 h
geometric mean AUC(0-24) as share of the exposure limits defined in the protocol ([1]; 2000 mg fasted): 31%
geometric mean Cmax as share of the exposure limits defined in the protocol ([1]; 2000 mg fasted): 34%
increase of geometric mean AUC(0-24) ([1]; dose from 300 to 600 mg): 3.5 fold
increase of geometric mean Cmax ([1]; dose from 300 to 600 mg): 2.6 fold
increase of geometric mean AUC(0-24) ([1]; dose from 600 to 900 mg): 1.2 fold
increase of geometric mean Cmax ([1]; dose from 600 to 900 mg): 1.6 fold
increase of geometric mean AUC(0-24) ([1]; dose from 900 to 2000 mg): 2.8 fold
increase of geometric mean Cmax ([1]; dose from 900 to 2000 mg): 1.7 fold
